Where “and” joins values, the source holds several entries; their conditions need not be identical. Equal entries are not always repeated.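 Results reflect a 48-hour exposure of cells in 96-well plates to compound at five concentrations. GI50 marks 50% less growth. TGI: total growth inhibition.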
Assays:
Assay in all cases: DTP human tumour cell line panel, 48 h
[1] = system: M14 melanoma
[2] = system: DMS 273 small cell lung
[3] = system: LOX IMVI melanoma
[4] = system: DLD-1 colon
[5] = system: A549 NSCLC
[6] = system: COLO 205 colon
[7] = system: SNB-78 CNS
[8] = system: KM20L2 colon
[9] = system: DMS 114 small cell lung
[10] = system: MOLT-4 leukemia
[11] = system: SF-295 CNS
[12] = system: M19-MEL melanoma
[13] = system: DU-145 prostate

Compound	TGI [1]	TGI [2]	TGI [3]	TGI [4]	GI50 [5]	TGI [5]	GI50 [6]	TGI [6]	TGI [7] [µM]	TGI [8]	GI50 [9]	TGI [9]	GI50 [10]	TGI [10]	TGI [11]	TGI [12] [µM]	TGI [13] [µM]	GI50 [11] [µM]
COc1cc(C2c3cc4c(cc3[C@@H](NCCN3CCOCC3)C3COC(=O)[C@H]23)OCO4)cc(OC)c1O (stereo partly specified)	11.7 µM and > 17.5 µM	7.72 µM and 5.44 µM	7.95 µM and 5.02 µM	22.8 µM and > 17.5 µM	0.314 µM and 0.761 µM	2.64 µM and 4.28 µM	8.01 µM and 1.95 µM	19.4 µM and > 17.5 µM	> 75	16.7 µM and > 17.5 µM	1.43 µM and 2.95 µM	5.05 µM and 8.98 µM	0.137 µM and 0.402 µM	4.48 µM and 4.87 µM	13.5 µM and 17.4 µM	–	–	–
Nc1nc(-c2ccco2)cc(-c2ccc(CO)o2)n1	> 100 µM	> 100 µM	> 100 µM	–	–	> 100 µM	–	> 100 µM	> 100	> 100 µM	–	> 100 µM	–	> 100 µM	> 100 µM	> 100	–	–
CC(C)NC(=O)OCc1c2c(n(C)c1COC(=O)NC(C)C)-c1ccccc1CC2	–	27.3 µM	16.9 µM	16.9 µM	–	89.9 µM	–	21.6 µM	72	28 µM	–	17 µM	–	8.95 µM	30.2 µM	23	–	–
O=C1c2ccccc2N2Oc3ccccc3C12c1ccccc1 (stereo unspecified)	> 100 µM	> 100 µM	–	–	–	> 100 µM	–	> 100 µM	> 100	> 100 µM	–	> 100 µM	–	> 100 µM	> 100 µM	> 100	–	–
Cc1ccc(C(=O)N/N=C(\N=Nc2ccc(C(=O)O)cc2)c2ccc(N(CCC#N)CCC#N)cc2C)cc1	> 100 µM	–	> 100 µM	–	–	> 100 µM	–	> 100 µM	–	–	–	–	–	> 100 µM	> 100 µM	–	> 100	–
CNc1nc(C(N)=O)c(N)s1	> 100 µM	–	> 100 µM	–	–	> 100 µM	–	> 100 µM	–	–	–	–	–	> 100 µM	> 100 µM	–	> 100	–
CC(=O)CC1=C(OC(C)C)C2(OCCO2)C1O (stereo unspecified)	> 100 µM	–	> 100 µM	–	–	> 100 µM	–	> 100 µM	–	–	–	–	–	> 100 µM	> 100 µM	–	> 100	–
Cc1nc2sccn2c1/C=C1/C(=O)Nc2cccc(Cl)c21	> 100 µM	–	> 100 µM	–	–	> 100 µM	–	> 100 µM	–	–	–	–	–	> 100 µM	> 100 µM	–	> 100	–
Cc1cnc2[nH]c(-c3ccc4ccccc4c3)cc(=O)c2c1	> 100 µM	–	> 100 µM	–	–	> 100 µM	–	18.6 µM	–	–	–	–	–	> 100 µM	> 100 µM	–	27.9	0.549
CN(C)Cc1cc(N=Nc2ccc(Cl)cc2)cc(CN(C)C)c1O	37.6 µM	–	16.1 µM	–	–	21.3 µM	–	13.4 µM	–	–	–	–	–	10.7 µM	24.7 µM	–	35.4	–
CC(C)Oc1c(-c2ccc(F)cc2)c(O)c2c3c1oc(=O)n3C=CC2C (stereo unspecified)	28.5 µM	–	28.2 µM	–	–	28 µM	–	32.2 µM	–	–	–	–	–	39.2 µM	34.6 µM	–	51.6	–
O=C1CC(NCc2ccccc2)c2c(Cl)sc(Cl)c21 (stereo unspecified)	> 63.6 µM	–	18.5 µM	–	–	> 100 µM	–	56 µM	–	–	–	–	–	43.2 µM	> 100 µM	–	> 66.5	–
COC(=O)/C=C1/OC(c2ccc(OC)cc2)=C(Cl)C1=O	35.4 µM	–	21.2 µM	–	–	56.4 µM	–	23.7 µM	–	–	–	–	–	12.3 µM	43.4 µM	–	36.6	–
CCOC(=O)c1nnc2c(C#N)c(-c3ccccc3)c(C)n2c1N	> 100 µM	–	> 100 µM	–	–	> 100 µM	–	> 100 µM	–	–	–	–	–	> 100 µM	> 100 µM	–	> 100	–
CCCCCCCCC/C=C1\CCC(CN(C)C)C1=O (stereo unspecified)	3.57 µM	3.25 µM	2.59 µM	4.28 µM	–	18 µM	–	5.37 µM	5.03	4.66 µM	–	4.87 µM	–	8.49 µM	12.7 µM	3.87	–	–
O=C(OCCNC(=O)N1CC1)OCCNC(=O)N1CC1	> 10 µM	–	> 10 µM	–	–	> 10 µM	–	> 10 µM	–	–	–	–	–	> 10 µM	> 10 µM	–	> 10	–
Cc1[nH]c(=O)nc(NNCc2ccc(Cl)cc2)c1C(=O)Nc1ccc(Cl)cc1	> 100 µM	–	> 100 µM	–	–	> 100 µM	–	> 100 µM	–	–	–	–	–	> 100 µM	> 100 µM	–	> 100	–
CC(C)N(C(C)C)S(=O)(=O)C[C@]12CC[C@H](CC13OCC(CS(=O)(=O)c1ccccc1)O3)C2(C)C (stereo partly specified)	> 100 µM	–	> 100 µM	–	–	> 100 µM	–	34.8 µM	–	–	–	–	–	45.7 µM	> 83.8 µM	–	> 100	–
c1ccc([I+]c2ccccc2)cc1	> 100 µM	–	> 100 µM	–	–	> 100 µM	–	> 100 µM	–	–	–	–	–	> 100 µM	> 100 µM	–	> 100	–
Cc1ccc2c(/C=C/c3ccc(N(C)C)cc3)ccc(C(C)C)cc1-2	> 100 µM	–	> 100 µM	–	–	> 100 µM	–	> 100 µM	–	–	–	–	–	> 100 µM	> 100 µM	–	> 100	–
Cc1cnc2sn(-c3ccc(Br)cc3)c(=O)c2c1	> 100 µM	–	> 100 µM	–	–	> 100 µM	–	49.3 µM	–	–	–	–	–	> 100 µM	97.8 µM	–	> 100	–
O=c1cc(-c2cccnc2)[nH]c2cc3c(cc12)OCO3	> 100 µM	> 100 µM	> 100 µM	> 100 µM	–	> 100 µM	–	> 100 µM	> 100	–	–	> 100 µM	–	> 100 µM	> 38.5 µM	> 100	> 100	–
CC(=O)Nc1cccc(N=NN(C)C)c1	–	> 100 µM	> 100 µM	> 31.6 µM	–	> 100 µM	–	> 100 µM	> 100	> 100 µM	–	> 100 µM	–	> 100 µM	> 100 µM	> 100	–	–
COc1cccc(C2c3cc4c(cc3OC(Nc3ccccc3)C2C)OCO4)c1OC (stereo unspecified)	> 100 µM	–	> 100 µM	–	–	> 100 µM	–	19.7 µM	–	–	–	–	–	17.9 µM	> 100 µM	–	> 100	–
CC(=O)N(C(C)=O)c1cc2c3c(c1)CCCN3CCC2	> 10 µM	–	> 10 µM	–	–	> 10 µM	–	> 10 µM	–	–	–	–	–	> 10 µM	> 10 µM	–	> 10	–
OC1CSc2nc3ccccc3n2C1 (stereo unspecified)	> 100 µM	–	> 100 µM	–	–	> 100 µM	–	> 100 µM	–	–	–	–	–	> 100 µM	> 100 µM	–	> 100	–

From PubChem BioAssay (NCI)
